# Assay results as given in ChEMBL document CHEMBL1795223, “A reverse method for diversity introduction of benzimidazole to synthesize H(+)/K(+)-ATP enzyme inhibitors” (Bioorg Med Chem Lett, 2011).
# Species: Sus scrofa
# Test: Inhibition of H+/K+ATPase in pig gastric microsome assessed as liberation of inorganic phosphate using ATP at 10 uM relative to control
# Type: microsomes
# Conditions: Stomach
row,SMILES,inhibition [%]
1,COc1ccnc(C[S+]([O-])c2nc3cc(N4CCCCC4)c(NC(=O)C(F)(F)F)cc3[nH]2)c1OC (stereo unspecified),38
2,COc1ccnc(C[S+]([O-])c2nc3cc(Oc4ccc5c(c4)OCO5)c(NC(C)=O)cc3[nH]2)c1OC (stereo unspecified),1
3,COc1ccnc(C[S+]([O-])c2nc3cc(N4CCCCC4)c(NC(=O)COCc4ccccc4)cc3[nH]2)c1OC (stereo unspecified),32
4,CCCN(CCC)c1cc2nc([S+]([O-])Cc3nccc(OC)c3OC)[nH]c2cc1NC(C)=O (stereo unspecified),28
5,COc1cc2nc([S+]([O-])Cc3ncc(C)c(OC)c3C)[nH]c2cc1NC(=O)C1CC1 (stereo unspecified),16
6,CCCN(CCC)c1cc2nc([S+]([O-])Cc3nccc(OC)c3OC)[nH]c2cc1NC(=O)C(F)(F)F (stereo unspecified),24
7,COc1c(C)cnc(C[S+]([O-])c2nc3cc(Oc4ccc5c(c4)OCO5)c(NC(=O)C4CC4)cc3[nH]2)c1C (stereo unspecified),10
8,COc1ccnc(C[S+]([O-])c2nc3cc(Oc4ccccc4)c(NC(=O)C4CC4)cc3[nH]2)c1OC (stereo unspecified),2
9,CCOC(=O)N1CCN(c2cc3nc([S+]([O-])Cc4nccc(OC)c4OC)[nH]c3cc2NC(=O)C2CC2)CC1 (stereo unspecified),4
10,CCCN(CCC)c1cc2nc([S+]([O-])Cc3nccc(OC)c3OC)[nH]c2cc1NC(=O)C1CC1 (stereo unspecified),11
11,COc1ccnc(C[S+]([O-])c2nc3cc(Oc4ccccc4)c(NC(C)=O)cc3[nH]2)c1OC (stereo unspecified),6
12,COc1ccnc(C[S+]([O-])c2nc3cc(N4CCCCC4)c(NC(=O)C4CC4)cc3[nH]2)c1OC (stereo unspecified),32
13,COc1c(C)cnc(C[S+]([O-])c2nc3cc(N4CCCCC4)c(NC(=O)C4CC4)cc3[nH]2)c1C (stereo unspecified),34
14,CCOC(=O)N1CCN(c2cc3nc([S+]([O-])Cc4ncc(C)c(OC)c4C)[nH]c3cc2NC(=O)C2CC2)CC1 (stereo unspecified),21
15,CCOC(=O)N1CCN(c2cc3nc([S+]([O-])Cc4nccc(OC)c4OC)[nH]c3cc2NC(C)=O)CC1 (stereo unspecified),17
16,COc1cc2nc([S+]([O-])Cc3ncc(C)c(OC)c3C)[nH]c2cc1NC(C)=O (stereo unspecified),4
17,CCCN(CCC)c1cc2nc([S+]([O-])Cc3ncc(C)c(OC)c3C)[nH]c2cc1NC(=O)C(F)(F)F (stereo unspecified),3
18,CCCN(CCC)c1cc2nc([S+]([O-])Cc3ncc(C)c(OC)c3C)[nH]c2cc1NC(=O)C1CC1 (stereo unspecified),33
19,COc1ccnc(C[S+]([O-])c2nc3cc(N4CCCCC4)c(NC(C)=O)cc3[nH]2)c1OC (stereo unspecified),8

row,SMILES,inhibition [%]
1,COc1cc2nc([S+]([O-])Cc3ncc(C)c(OC)c3C)[nH]c2cc1NC(=O)c1ccco1 (stereo unspecified),13
2,COCCCOc1ccnc(C[S+]([O-])c2nc3ccccc3[nH]2)c1C (stereo unspecified) [RABEPRAZOLE SODIUM],90
3,COc1c(C)cnc(C[S+]([O-])c2nc3cc(Oc4ccc5c(c4)OCO5)c(NC(C)=O)cc3[nH]2)c1C (stereo unspecified),35
4,CCCN(CCC)c1cc2nc([S+]([O-])Cc3ncc(C)c(OC)c3C)[nH]c2cc1NC(=O)c1ccco1 (stereo unspecified),39
5,COc1ccnc(C[S+]([O-])c2nc3cc(Oc4ccc5c(c4)OCO5)c(NC(=O)C4CC4)cc3[nH]2)c1OC (stereo unspecified),0
6,COc1c(C)cnc(C[S+]([O-])c2nc3cc(N4CCCCC4)c(NC(=O)COCc4ccccc4)cc3[nH]2)c1C (stereo unspecified),58
7,CCCN(CCC)c1cc2nc([S+]([O-])Cc3nccc(OC)c3OC)[nH]c2cc1NC(=O)c1ccco1 (stereo unspecified),0
8,COc1cc2nc([S+]([O-])Cc3nccc(OC)c3OC)[nH]c2cc1NC(=O)C1CC1 (stereo unspecified),16
9,CCOC(=O)N1CCN(c2cc3nc([S+]([O-])Cc4ncc(C)c(OC)c4C)[nH]c3cc2NC(C)=O)CC1 (stereo unspecified),15
10,COc1cc2nc([S+]([O-])Cc3nccc(OC)c3OC)[nH]c2cc1NC(=O)c1ccco1 (stereo unspecified),13
11,CCCN(CCC)c1cc2nc([S+]([O-])Cc3ncc(C)c(OC)c3C)[nH]c2cc1NC(C)=O (stereo unspecified),62
12,COc1c(C)cnc(C[S+]([O-])c2nc3cc(N4CCCCC4)c(NC(C)=O)cc3[nH]2)c1C (stereo unspecified),10
13,COc1ccnc(C[S+]([O-])c2nc3cc(Oc4ccccc4)c(NC(=O)c4ccco4)cc3[nH]2)c1OC (stereo unspecified),9
14,COc1c(C)cnc(C[S+]([O-])c2nc3cc(Oc4ccccc4)c(NC(C)=O)cc3[nH]2)c1C (stereo unspecified),37
15,COc1c(C)cnc(C[S+]([O-])c2nc3cc(Oc4ccccc4)c(NC(=O)c4ccco4)cc3[nH]2)c1C (stereo unspecified),48
16,COc1ccc2[nH]c([S+]([O-])Cc3ncc(C)c(OC)c3C)nc2c1 (stereo unspecified) [OMEPRAZOLE],39
17,COc1c(C)cnc(C[S+]([O-])c2nc3cc(Oc4ccccc4)c(NC(=O)C4CC4)cc3[nH]2)c1C (stereo unspecified),18
18,COc1c(C)cnc(C[S+]([O-])c2nc3cc(N4CCCCC4)c(NC(=O)C(F)(F)F)cc3[nH]2)c1C (stereo unspecified),41
19,COc1cc2nc([S+]([O-])Cc3nccc(OC)c3OC)[nH]c2cc1NC(C)=O (stereo unspecified),4

# Biological target: not listed separately
# Test: Inhibition of H+/K+ATPase in pig gastric microsome assessed as liberation of inorganic phosphate using ATP
# Type: microsomes, Sus scrofa, Stomach
# Conditions: not given
row,SMILES,IC50 [µM]
1,COCCCOc1ccnc(C[S+]([O-])c2nc3ccccc3[nH]2)c1C (stereo unspecified) [RABEPRAZOLE SODIUM],1.5
2,CCCN(CCC)c1cc2nc([S+]([O-])Cc3ncc(C)c(OC)c3C)[nH]c2cc1NC(C)=O (stereo unspecified),16
3,COc1ccc2[nH]c([S+]([O-])Cc3ncc(C)c(OC)c3C)nc2c1 (stereo unspecified) [OMEPRAZOLE],18
